Target: SMYD2 (Homo sapiens (Human), UniProt Q9NRG4)
Assay: SMYD2 biochemical assay (SMYD2 enzyme assay on peptide substrate, 3H-SAM Flashplate)
Details: not given

Chain of SMYD2 (Q9NRG4 whole entry): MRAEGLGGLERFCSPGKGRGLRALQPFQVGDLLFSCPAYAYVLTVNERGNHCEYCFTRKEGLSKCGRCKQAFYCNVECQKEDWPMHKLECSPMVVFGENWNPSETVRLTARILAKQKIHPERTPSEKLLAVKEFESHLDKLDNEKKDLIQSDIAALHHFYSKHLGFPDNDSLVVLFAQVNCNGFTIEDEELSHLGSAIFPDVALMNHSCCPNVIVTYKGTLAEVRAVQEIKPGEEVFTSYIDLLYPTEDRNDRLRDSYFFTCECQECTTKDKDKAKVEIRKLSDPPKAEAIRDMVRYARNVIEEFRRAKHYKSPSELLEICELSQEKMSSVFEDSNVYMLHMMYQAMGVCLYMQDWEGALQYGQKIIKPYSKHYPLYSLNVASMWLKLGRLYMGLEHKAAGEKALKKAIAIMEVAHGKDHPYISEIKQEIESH

`C[C@@H](c1ccccc1)N1C[C@@H](NC(=O)c2cn(C3CC3)nn2)C1(C)C` (racemic) [compound 1026, rac-1-cyclopropyl-N-((R)-2,2-dimethyl-1-((S)-1-phenylethyl)azetidin-3-yl)-1H-1,2,3-triazole-4-carboxamide] showed an IC50 of 910 nM.

Same assay, conditions: read-out: SMYD2 Biochem IC50; IC50 values are an average of n = 1 to n = 50

Compared with `O=C(NC1CN(C(c2ccc(F)cc2)C2CC2)C1)c1cn(C2CC2)nn1` (stereo not drawn) [compound 786, 1-cyclopropyl-N-{1-[cyclopropyl(4-fluorophenyl)methyl]azetidin-3-yl}-1H-1,2,3-triazole-4-carboxamide], `CC(c1ccc(OCC(C)(C)C)cc1)N1CC(NC(=O)c2cn(C3CC3)nn2)C1` (stereo not drawn) [compound 864, 1-cyclopropyl-N-(1-{1-[4-(2,2-dimethylpropoxy)phenyl]ethyl}azetidin-3-yl)-1H-1,2,3-triazole-4-carboxamide] is 1.8-fold higher in IC50: 1700 nM for the first, 3140 nM for the second.

First: CC(C)N1CCCC(NC(=O)c2cn(C3CC3)nn2)C1 (stereo not drawn) [compound 808, 1-cyclopropyl-N-[1-(propan-2-yl)piperidin-3-yl]-1H-1,2,3-triazole-4-carboxamide]
Second: CC(C)CN1CC(NC(=O)c2cn(C3CC3)nn2)C1 [compound 668, 1-cyclopropyl-N-[1-(2-methylpropyl)azetidin-3-yl]-1H-1,2,3-triazole-4-carboxamide]
The IC50 of the first is 7.2-fold higher: 19800 nM for the first, 2750 nM for the second. The second is the more potent here.

Compared with `COc1ccc(CC(C)N2CC(NC(=O)c3cn(C4CC4)nn3)C2)cc1OC` (stereo not drawn) [compound 688, 1-cyclopropyl-N-{1-[1-(3,4-dimethoxyphenyl)propan-2-yl]azetidin-3-yl}-1H-1,2,3-triazole-4-carboxamide], `COc1cccc(OC)c1C(C)N1CC(NC(=O)c2cn(C3CC3)nn2)C1` (stereo not drawn) [compound 768, 1-cyclopropyl-N-{1-[1-(2,6-dimethoxyphenyl)ethyl]azetidin-3-yl}-1H-1,2,3-triazole-4-carboxamide] is 3-fold lower in IC50: 5100 nM for the first, 1680 nM for the second. The second is the more potent here.

`C[C@@H](c1ccccc1)N1CC(NC(=O)c2ncc(C3CC3)[nH]2)C1` [compound 914, 5-cyclopropyl-N-{1-[(1S)-1-phenylethyl]azetidin-3-yl}-1H-imidazole-2-carboxamide] and `C[C@@H](c1ccccc1)N1CC(NC(=O)c2cc(C3CC3)cnn2)C1` [compound 646, 5-cyclopropyl-N-{1-[(1S)-1-phenylethyl]azetidin-3-yl}pyridazine-3-carboxamide] are within 1.5-fold of each other in IC50: 729 nM for the first, 516 nM for the second.

First: O=C(NC1CN(Cc2cn(Cc3ccccc3)cn2)C1)c1cn(C2CC2)nn1 [compound 795, N-{1-[(1-benzyl-1H-imidazol-4-yl)methyl]azetidin-3-yl}-1-cyclopropyl-1H-1,2,3-triazole-4-carboxamide]
Second: COc1ccccc1Cn1cc(CN2CC(NC(=O)c3cn(C4CC4)nn3)C2)cn1 [compound 995, 1-cyclopropyl-N-(1-((1-(2-methoxybenzyl)-1H-pyrazol-4-yl)methyl)azetidin-3-yl)-1H-1,2,3-triazole-4-carboxamide]
The IC50 of the first is 5.5-fold higher: 7150 nM for the first, 1300 nM for the second. The second is the more potent here.

First: O=C(NC1CN(Cc2cnn(Cc3ccccc3)c2)C1)c1cc(C2CC2)ccn1 [compound 966, N-(1-((1-benzyl-1H-pyrazol-4-yl)methyl)azetidin-3-yl)-4-cyclopropylpicolinamide]
Second: O=C(NC1CN(Cc2ccc(OCc3ccccc3)cc2)C1)c1cc(C2CC2)ccn1 [compound 967, N-(1-(4-(benzyloxy)benzyl)azetidin-3-yl)-4-cyclopropylpicolinamide]
The IC50 of the first is 12-fold lower: 13 nM for the first, 150 nM for the second.

Compared with `CN1[C@@H]2CC[C@H]1C[C@@H](NC(=O)c1cc(C3CC3)cnn1)C2` [compound 1024, 5-cyclopropyl-N-((1R,3r,5S)-8-methyl-8-azabicyclo[3.2.1]octan-3-yl)pyridazine-3-carboxamide], `CC(C)N1CCCC(NC(=O)c2cc(C3CC3)cnn2)C1` (stereo not drawn) [compound 815, 5-cyclopropyl-N-[1-(propan-2-yl)piperidin-3-yl]pyridazine-3-carboxamide] is lower in IC50: > 50000 nM for the first, 18700 nM for the second.

Compared with `CC(C)N1CC(NC(=O)c2cn(C3CC3(F)F)nn2)C1` (stereo not drawn) [compound 770, 1-(2,2-difluorocyclopropyl)-N-[1-(propan-2-yl)azetidin-3-yl]-1H-1,2,3-triazole-4-carboxamide], `CC(c1ncccn1)N1CC(NC(=O)c2cn(C3CC3)nn2)C1` (stereo not drawn) [compound 715, 1-cyclopropyl-N-{1-[1-(pyrimidin-2-yl)ethyl]azetidin-3-yl}-1H-1,2,3-triazole-4-carboxamide] is 2.2-fold lower in IC50: 4190 nM for the first, 1940 nM for the second. The second is the more potent here.

First: COc1ccc(C(C)N2CC(NC(=O)c3cc(C4CC4)cnn3)C2)cc1 (stereo not drawn) [compound 958, 5-cyclopropyl-N-(1-(1-(4-methoxyphenyl)ethyl)azetidin-3-yl)pyridazine-3-carboxamide]
Second: COc1c(OCCO)cccc1C(C)N1CC(NC(=O)c2cc(C3CC3)cnn2)C1 (stereo not drawn) [compound 650, 5-cyclopropyl-N-(1-{1-[3-(2-hydroxyethoxy)-2-methoxyphenyl]ethyl}azetidin-3-yl)pyridazine-3-carboxamide]
The IC50 of the first is 1.9-fold higher: 600 nM for the first, 312 nM for the second.

`CNC(=O)c1ccc(COc2ccc(C(C)N3CC(NC(=O)c4cn(C5CC5)nn4)C3)cc2)cc1` (stereo not drawn) [compound 854, 1-cyclopropyl-N-{1-[1-(4-{[4-(methylcarbamoyl)phenyl]methoxy}phenyl)ethyl]azetidin-3-yl}-1H-1,2,3-triazole-4-carboxamide] and `CC(=O)Nc1ccc(COc2ccc(C(C)N3CC(NC(=O)c4cn(C5CC5)nn4)C3)cc2)cc1` (stereo not drawn) [compound 1020, N-(1-(1-(4-((4-acetamidobenzyl)oxy)phenyl)ethyl)azetidin-3-yl)-1-cyclopropyl-1H-1,2,3-triazole-4-carboxamide] are within 1.5-fold of each other in IC50: 965 nM for the first, 950 nM for the second.

Going from `O=C(NC1CN(Cc2ccc(Cn3cccn3)cc2)C1)c1cc(C2CC2)cnn1` [compound 954, N-(1-(4-((1H-pyrazol-1-yl)methyl)benzyl)azetidin-3-yl)-5-cyclopropylpyridazine-3-carboxamide] to `COc1ccc(C(C)N2CC(NC(=O)c3cc(C4CC4)cnn3)C2)cc1` (stereo not drawn) [compound 856, 5-cyclopropyl-N-{1-[1-(4-methoxyphenyl)ethyl]azetidin-3-yl}pyridazine-3-carboxamide], the IC50 falls from 2400 nM to 603 nM (4-fold).

`COc1cccc(C(C)N2CC(NC(=O)c3cn(C4CC4)nn3)C2)c1Cl` (stereo not drawn) [compound 803, N-{1-[1-(2-chloro-3-methoxyphenyl)ethyl]azetidin-3-yl}-1-cyclopropyl-1H-1,2,3-triazole-4-carboxamide] and `CC(c1cccc(OCCO)c1Cl)N1CC(NC(=O)c2cn(C3CC3)nn2)C1` (stereo not drawn) [compound 775, N-(1-{1-[2-chloro-3-(2-hydroxyethoxy)phenyl]ethyl}azetidin-3-yl)-1-cyclopropyl-1H-1,2,3-triazole-4-carboxamide] are within 1.5-fold of each other in IC50: 69.5 nM for the first, 49.4 nM for the second.

Going from `CC(c1ccc(COc2ccccc2)cc1)N1CC(NC(=O)c2cn(C3CC3)nn2)C1` (stereo not drawn) [compound 974, 1-cyclopropyl-N-(1-(1-(4-(phenoxymethyl)phenyl)ethyl)azetidin-3-yl)-1H-1,2,3-triazole-4-carboxamide] to `CC(c1cccc(Oc2ccccc2)c1)N1CC(NC(=O)c2cn(C3CC3)nn2)C1` (stereo not drawn) [compound 730, 1-cyclopropyl-N-{1-[1-(3-phenoxyphenyl)ethyl]azetidin-3-yl}-1H-1,2,3-triazole-4-carboxamide], the IC50 rises from 870 nM to 3040 nM (3.5-fold). The first is the more potent here.

Compared with `CCC(c1ccccn1)N1CC(NC(=O)c2cn(C3CC3)nn2)C1` (stereo not drawn) [compound 791, 1-cyclopropyl-N-{1-[1-(pyridin-2-yl)propyl]azetidin-3-yl}-1H-1,2,3-triazole-4-carboxamide], `COc1ccnc(C(C)N2CC(NC(=O)c3cn(C4CC4)nn3)C2)c1` (stereo not drawn) [compound 724, 1-cyclopropyl-N-{1-[1-(4-methoxypyridin-2-yl)ethyl]azetidin-3-yl}-1H-1,2,3-triazole-4-carboxamide] is 1.9-fold lower in IC50: 2470 nM for the first, 1270 nM for the second.

Compared with `CC(NC(=O)c1cn(C2CC2)nn1)C1CCCCN1C` (stereo not drawn) [compound 979, 1-cyclopropyl-N-(1-(1-methylpiperidin-2-yl)ethyl)-1H-1,2,3-triazole-4-carboxamide], `Cn1cc(CN2CC(NC(=O)c3cn(C4CC4)nn3)C2)c(Cl)n1` [compound 811, N-{1-[(3-chloro-1-methyl-1H-pyrazol-4-yl)methyl]azetidin-3-yl}-1-cyclopropyl-1H-1,2,3-triazole-4-carboxamide] is lower in IC50: > 50000 nM for the first, 1220 nM for the second.

Compared with `O=C(NC1CN(Cc2cccc(OCCO)c2)C1)c1cn(C2CC2)nn1` [compound 734, 1-cyclopropyl-N-(1-{[3-(2-hydroxyethoxy)phenyl]methyl}azetidin-3-yl)-1H-1,2,3-triazole-4-carboxamide], `O=C(NC1CN(Cc2ccc(OCCO)cc2)C1)c1cn(C2CC2)nn1` [compound 827, 1-cyclopropyl-N-(1-{[4-(2-hydroxyethoxy)phenyl]methyl}azetidin-3-yl)-1H-1,2,3-triazole-4-carboxamide] is 1.7-fold lower in IC50: 2310 nM for the first, 1380 nM for the second.

Compared with `COc1ccc(Cl)c(C(C)N2CC(NC(=O)c3cn(C4CC4)nn3)C2)c1` (stereo not drawn) [compound 938, N-(1-(1-(2-chloro-5-methoxyphenyl)ethyl)azetidin-3-yl)-1-cyclopropyl-1H-1,2,3-triazole-4-carboxamide], `CC(c1cc(F)cc(Cl)c1)N1CC(NC(=O)c2cn(C3CC3)nn2)C1` (stereo not drawn) [compound 714, N-{1-[1-(3-chloro-5-fluorophenyl)ethyl]azetidin-3-yl}-1-cyclopropyl-1H-1,2,3-triazole-4-carboxamide] is 16-fold higher in IC50: 130 nM for the first, 2130 nM for the second.

Compared with `CC(NC(=O)c1cc(C2CC2)cnn1)C1CN(C(C)C)C1` (stereo not drawn) [compound 840, 5-cyclopropyl-N-{1-[1-(propan-2-yl)azetidin-3-yl]ethyl}pyridazine-3-carboxamide], `CN(C)CCNC(=O)c1cc(C2CC2)cnn1` [compound 869, 5-cyclopropyl-N-[2-(dimethylamino)ethyl]pyridazine-3-carboxamide] is 1.7-fold lower in IC50: 36800 nM for the first, 21100 nM for the second.

Going from `Cc1coc(Cn2cc(CN3CC(NC(=O)c4cn(C5CC5)nn4)C3)cn2)n1` [compound 937, 1-cyclopropyl-N-(1-((1-((4-methyloxazol-2-yl)methyl)-1H-pyrazol-4-yl)methyl)azetidin-3-yl)-1H-1,2,3-triazole-4-carboxamide] to `COc1cc(C(C)N2CC(NC(=O)c3cn(C4CC4)nn3)C2)ccc1OCc1ccccc1` (stereo not drawn) [compound 939, N-(1-(1-(4-(benzyloxy)-3-methoxyphenyl)ethyl)azetidin-3-yl)-1-cyclopropyl-1H-1,2,3-triazole-4-carboxamide], the IC50 rises from 120 nM to 3600 nM (30-fold). The first is the more potent here.

Source: patent publication US10266526B2, “Substituted 1,2,3-triazoles as SMYD inhibitors for treating cancer” (EPIZYME, INC., priority 2014, dated 2019)
